Source: patent publication US10975142B2, “Endotrophin neutralization and use thereof” (THE BOARD OF REGENTS OF THE UNIVERSITY OF TEXAS SYSTEM, priority 2013, dated 2021)

How the values were obtained:
PyMT mice = test: TZD and cisplatin treatment of FP635/PyMT (PyMT) mice; type: in vivo, mouse
Procedure: FIGS. 19A-19F. TZD augments cisplatin sensitivity and correlates with the COL6A3 levels. FIG. 19A. FP635/PyMT mice were given TZD containing chow (supply approx. 20 mg/kg/day, rosiglitazone) or normal-diet (ND) starting at 8-weeks of age, and cisplatin (1 mg/kg) or PBS treatment was initiated at 10 weeks of age (ip., 3 times/week) over the course of tumor progression. Tumor burden was monitored with a fluorescence scanner (IVIS, Caliper life science). Quantified results are represented as mean±SD (n=8-9/group). *p=0.04, ND/CIS vs. TZD/CIS by unpaired student t-test. Metastatic burden was determined by fluorescence signals in lung tissues. FIG. 19B. Primary cancer cells isolated from tumors in PyMT mice were implanted into WT mice. TZD were given 5 days prior to cisplatin treatment (1 mg/kg, every 5 days). Tumor volumes were determined by caliper measurement and represented as mean±SD (n=5-6/group). *p<0.05 and **p<0.001, ND/CIS vs. TZD/CIS by 2-way ANOVA. FIGS. 19C-19D. Total RNA was extracted from tumor tissues in each group. mRNA levels for collagens such as COL1A1, COL6A1, -A2, and -A3 (FIG. 19C), and EMT genes such as E-cadherin, N-cadherin, Vimentin, Snail, Slug, Twist1 and Twist2 (FIG. 19D) were determined by qRT-PCR and normalized with 36B4. Quantitative results represent mean±SD (n=7/group). *p<0.05, **p<0.01, ***p<0.001 ND/PBS vs. ND/CIS; ^###p<0.001 ND/CIS vs. TZD/CIS by 2-way ANOVA. FIGS. 19E-19F. EMT indices were determined by immunostaining with E-Cadherin (FIG. 19E) and Vimentin (FIG. 19F). Cytokeratin (epithelial cells) and DAPI (nucleus) were co-stained. Staining positive area was quantified (multiple images, n=5/group). **p=0.014 (E) and *p=0.015 (F), ND/CIS vs. TZD/CIS by unpaired student t-test. Scale bars: 100 μm.
FIGS. 23A-23B: TZD confers beneficial effects on cisplatin treatment in mammary tumors. Met-1 cancer cells (0.5×10^6 cells/mouse) were implanted into wild-type mice and TZD (20 mg/kg) was given by diet and cisplatin (1 mg/kg) was intraperitoneally (ip.) injected every 5 days from 30 days post implantation (n=8/group). ***p<0.001 vs. ND by 2-way ANOVA. Tumor tissues from PyMT mice given TZD or normal diet (ND) diet were histologically assessed. […] Data represent mean±SD (n=5/group). **p=0.0042 ND vs. TZD by unpaired student t-test. Scales: 50 μm. […] Data represent mean±SD (n=5/group). *p=0.002 ND vs. TZD by unpaired student t-test. Arrows indicate staining positive cells. Scales: 25 μm.
Cisplatin (sigma, 479306) was diluted to 1 mg/ml in PBS and was sonicated briefly before injection. […]
Infrared fluorescence expressing MMTV-PyMT mice (FP635/PyMT) were imaged by IVIS scanner (Caliper lifesciences) and signal intensity was analyzed with Living image v.3.2 (Caliper lifesciences).

tumors from PyMT mice = test: allografts of PyMT tumor pieces, cisplatin with TZD or 10B6; type: in vivo; conditions: cisplatin 1 mg/kg every 5 days combined with TZD 20 mg/kg or 10B6 100 μg/mouse once a week; 2-months post implantation
Procedure: FIGS. 22A-22E. Neutralizing endotrophin activities with monoclonal antibodies sensitizes tumors to cisplatin treatment. FIG. 22A. Pieces of tumors from PyMT mice were implanted into wild-type hosts. Tumor-bearing mice were given cisplatin (1 mg/kg, ip., every 5 days) or PBS, combined with either TZD (20 mg/kg) or anti-endotrophin monoclonal antibodies (100 μg/mouse, once a week) for tumor progression. Tumor volumes were determined by caliper measurements. Data represent mean±SD (n=5/group). *p<0.05, **p<0.01, ***p<0.001 vs. Cisplatin by 2-way ANOVA. FIGS. 22B-22D. 4T1 (0.5×10^6/mouse) cells were xenografted in nude mice and monitored tumor growth (FIG. 22B) and metastasis (FIG. 22C). […] Tumor volumes were determined by caliper measurements. […] Metastatic burden was determined by measuring metastatic lesion area in lung tissues with H&E stains. Quantified data represent mean±SD (n=5/group). **p=0.0007 and *p=0.0209 vs. CIS/10B6 by unpaired student t-test. mRNA levels for EMT markers such as vimentin, snail, slug, twist1, twist2 and S100S4 were determined by RT-qPCR (FIG. 22D). […]
As a last step, therapeutic potential of a previously described endotrophin neutralizing antibody (clone 10B6) on cisplatin sensitivity was determined. […] Tumor regression was monitored for 2-months post implantation. […]

Molecule: N.N.[Cl][Pt][Cl] [cisplatin, cis-diammine-dichloro-platinum]
- EMT in tumor tissues (loss of E-cadherin or increase in vimentin) (PyMT mice; immunostaining): significant increase
- metallothionein (MT) levels in tumor tissues (PyMT mice; immunostaining): significantly increased
- mRNA levels of COL6A3 in tumor tissues (PyMT mice; qRT-PCR): significantly increased
- mRNA levels for EMT transcription factors (Snail, Slug, Twist1) (PyMT mice; qRT-PCR, tumor tissues): significantly increased

B1: 10B6: rat anti-mouse endotrophin monoclonal antibody; light chain variable SEQ ID NO: 2, heavy chain variable SEQ ID NO: 4 (antibody, V domains shown)
VH: QVQLQQSGPELAKPGSSVKISCKASGYTFTSYEMHWIKQRPGQGLEWIGYIYPESGSTGYNEKFKGKATLTVDKSSPTAYMQLSSLTPDNSAVYFCTRGLRVLGYVMDVWGHGTSVTVSS
VL: DVQLTQSPSFLSASVGDRVTINCKASQNINKYLNWYQQKLGEAPKRLIYNTNNLQTGIPSRFSGSASGTDYTLTISSLHPEDFATYFCLQHSSLYTFGAGTKLELK
- tumor growth / sensitization of the tumors to cisplatin treatment (tumors from PyMT mice): efficiently sensitize
